Reference: paper PMC9533862 (Antiviral Research, 2010)
“And” between values parts separate entries of the source, which are not always exact repeats. Equal values may be shown once. Read-outs that look alike come from different tables or passages of the source.

Key:
in vitro = details: human, CC50, HeLa cell monolayers; 24 h incubation; WST-1
[1] = system: vaccinia virus (strain Copenhagen); format: cell-based
[2] = system: vaccinia virus (strain Copenhagen); experiment: microbe, parasite or virus in culture; format: cell-based
HeLa cells = details: HeLa cell monolayers; 24 h incubation; WST-1
[3] = system: Plasmodium vinckei petteri; details: mice; ref Adovelande and Schrevel, 1996; cited from earlier work
[4] = system: vaccinia virus Western Reserve (WR) strain; experiment: microbe, parasite or virus in culture; format: cell-based
myxoma virus = format: cell-based; details: HeLa cells, 2 μM, MOI 0.1
[5] = system: vaccinia virus (strain Copenhagen); format: cell-based; details: 0.2 μM
[6] = system: vaccinia virus (strain Copenhagen); format: cell-based; details: 0.2 μM; remark: listed apart in the source
[7] = system: vaccinia virus DNA replication; format: cell-based
[8] = system: vaccinia virus protein expression (D12, G8, H3); format: cell-based; details: 2 μM
[9] = system: vaccinia virus gene transcription (D12, A1, A17); format: cell-based; details: 2 μM
vaccinia virus = details: previously reported against vaccinia; ref Yang et al., 2005; cited from earlier work

## Nc1ccn(C[C@@H](CO)OCP(=O)(O)O)c(=O)n1 [Cidofovir]
In vitro
  CC50: > 1000 µM
[1]
  reduction in virus titres: no effect on vaccinia replication
[2]; Orthopoxvirus vaccinia, HeLa
  IC50: ~110 µM

## C/C=C/[C@H]1O[C@@](O)([C@@H](C)[C@H](O)[C@H](C)[C@H]2OC(=O)/C(OC)=C/C(C)=C/[C@@H](C)[C@@H](O)[C@@H](CC)[C@@H](O)[C@H](C)C/C(C)=C/C=C/[C@@H]2OC)C[C@@H](O[C@H]2C[C@@H](O)[C@H](OC(N)=O)[C@@H](C)O2)[C@@H]1C [Concanamycin A]
In vitro
  CC50: 13.5 ± 5.7 µM
[2]
  Selectivity index: 7941
[2]; Orthopoxvirus vaccinia, HeLa
  IC50: ~0.0017 µM

## C/C=C/[C@H]1O[C@@](O)([C@@H](C)[C@H](O)[C@H](C)[C@H]2OC(=O)/C(OC)=C/C(C)=C/[C@@H](C)[C@@H](O)[C@@H](C)[C@@H](O)[C@H](C)C/C(C)=C/C=C/[C@@H]2OC)C[C@@H](O[C@H]2C[C@@H](O)[C@H](OC(N)=O)[C@@H](C)O2)[C@@H]1C [Concanamycin B]
[2]
  IC50: ~0.011 µM and 0.011 µM
HeLa cells
  CC50: 21.4 ± 0.6 µM

## C/C=C/[C@H]1O[C@@](O)([C@@H](C)[C@H](O)[C@H](C)[C@H]2OC(=O)/C(OC)=C/C(C)=C/[C@@H](C)[C@@H](O)[C@@H](CC)[C@@H](O)[C@H](C)C/C(C)=C/C=C/[C@@H]2OC)C[C@@H](O[C@H]2C[C@@H](O)[C@H](O)[C@@H](C)O2)[C@@H]1C [Concanamycin C]
[2]
  IC50: ~0.0028 µM and 0.0028 µM
HeLa cells
  CC50: 15.6 ± 3.2 µM

## CC[C@@]1([C@@H]2O[C@@H]([C@H]3O[C@@](O)(CO)[C@H](C)C[C@@H]3C)C[C@@H]2C)CC[C@H]([C@]2(C)CC[C@]3(C[C@H](O)[C@@H](C)[C@@H]([C@@H](C)[C@@H](OC)[C@H](C)C(=O)O)O3)O2)O1 [Monensin]
In vitro
  CC50: 23 ± 2.9 µM
[1]
  reduction in virus titres: approximately 20 fold
[2]
  Selectivity index: 1065
[2]; Orthopoxvirus vaccinia, HeLa
  IC50: ~0.0216 µM

## CO[C@@H]1C[C@@H](C[C@H]2CC[C@H](C)[C@H]([C@@H](C)C(=O)O)O2)O[C@]2(O[C@](C)([C@H]3CC[C@@](C)([C@@H]4O[C@@H]([C@H]5O[C@@](O)(CO)[C@H](C)C[C@@H]5C)C[C@@H]4C)O3)C[C@H]2C)[C@@H]1C [Nigericin]
[3]
  dosages at which toxicity was observed: above 10 mg kg^−1
[4]
  Selectivity index: 421 (WR)
[4]; Vaccinia virus Western Reserve, HeLa
  IC50: ~0.0195 µM
Myxoma virus
  reduction in virus titres: 676 fold
[1]
  reduction of virus replication, compound added 4 hpi: ~1600 fold
  vaccinia replication after removal of compound at 1 hpi: vaccinia replication approached the level of untreated controls
[1]; 0.2 μM
  decrease in viral titres: ~10 fold
[5]
  decrease in viral titres: ~10 fold
[6]
  decrease in viral titres: ~10 fold
[2]
  Selectivity index: 1038 (Cop)
[2]; Orthopoxvirus vaccinia, HeLa
  IC50: ~0.0079 µM
[7]; 2 μM
  abundance of the A1 gene at 8 hpi (viral DNA replication): no significant increase in the abundance of the A1 gene
[8]
  D12 (early) protein expression: partially inhibited
  G8 (intermediate) protein expression: very little G8 detected
  H3 (late) protein expression: unable to detect H3 protein
[9]
  reduction of A1 (intermediate) transcript expression: ~94%
  reduction of A17 (late) transcript expression: ~98%
  reduction of D12 (early) transcript expression: ~82%

## O=C(NN1C(=O)[C@@H]2[C@@H]3C=C[C@@H]([C@H]4C[C@@H]34)[C@@H]2C1=O)c1ccc(C(F)(F)F)cc1 [ST-246]
In vitro
  CC50: > 1000 µM
[1]
  reduction in virus titres: approximately 7.4 fold
Vaccinia virus
  IC50: 0.01 µM
[2]; Orthopoxvirus vaccinia, HeLa
  IC50: ~0.0094 µM

## Nc1ccn([C@@H]2O[C@H](CO)[C@@H](O)[C@@H]2O)c(=O)n1 [araC, cytosine arabinoside]
[7]; 50 μg/mL
  abundance of the A1 gene at 8 hpi (viral DNA replication): no significant increase in the abundance of the A1 gene
